Experimental data taken from US11752155B2, “Treatment of autism spectrum disorders, obsessive-compulsive disorder and anxiety disorders” (Rugen Holdings (Cayman) Limited, priority 2016, dated 2023).
Where a name gives a salt, the structure may show the parent alone. Read-outs that look alike come from different tables or passages of the source.

What was measured:
[1] = target: native rat brain NR2B receptors (Rattus norvegicus (Rat), UniProt P35439+Q00960); experiment: NR2B radioligand binding assay in rat brain using [3H] (E)-N1-(2-methoxybenzyl)-cinnamidine
Sequence of native rat brain NR2B receptors (Q00960 27-1482, other chains not shown): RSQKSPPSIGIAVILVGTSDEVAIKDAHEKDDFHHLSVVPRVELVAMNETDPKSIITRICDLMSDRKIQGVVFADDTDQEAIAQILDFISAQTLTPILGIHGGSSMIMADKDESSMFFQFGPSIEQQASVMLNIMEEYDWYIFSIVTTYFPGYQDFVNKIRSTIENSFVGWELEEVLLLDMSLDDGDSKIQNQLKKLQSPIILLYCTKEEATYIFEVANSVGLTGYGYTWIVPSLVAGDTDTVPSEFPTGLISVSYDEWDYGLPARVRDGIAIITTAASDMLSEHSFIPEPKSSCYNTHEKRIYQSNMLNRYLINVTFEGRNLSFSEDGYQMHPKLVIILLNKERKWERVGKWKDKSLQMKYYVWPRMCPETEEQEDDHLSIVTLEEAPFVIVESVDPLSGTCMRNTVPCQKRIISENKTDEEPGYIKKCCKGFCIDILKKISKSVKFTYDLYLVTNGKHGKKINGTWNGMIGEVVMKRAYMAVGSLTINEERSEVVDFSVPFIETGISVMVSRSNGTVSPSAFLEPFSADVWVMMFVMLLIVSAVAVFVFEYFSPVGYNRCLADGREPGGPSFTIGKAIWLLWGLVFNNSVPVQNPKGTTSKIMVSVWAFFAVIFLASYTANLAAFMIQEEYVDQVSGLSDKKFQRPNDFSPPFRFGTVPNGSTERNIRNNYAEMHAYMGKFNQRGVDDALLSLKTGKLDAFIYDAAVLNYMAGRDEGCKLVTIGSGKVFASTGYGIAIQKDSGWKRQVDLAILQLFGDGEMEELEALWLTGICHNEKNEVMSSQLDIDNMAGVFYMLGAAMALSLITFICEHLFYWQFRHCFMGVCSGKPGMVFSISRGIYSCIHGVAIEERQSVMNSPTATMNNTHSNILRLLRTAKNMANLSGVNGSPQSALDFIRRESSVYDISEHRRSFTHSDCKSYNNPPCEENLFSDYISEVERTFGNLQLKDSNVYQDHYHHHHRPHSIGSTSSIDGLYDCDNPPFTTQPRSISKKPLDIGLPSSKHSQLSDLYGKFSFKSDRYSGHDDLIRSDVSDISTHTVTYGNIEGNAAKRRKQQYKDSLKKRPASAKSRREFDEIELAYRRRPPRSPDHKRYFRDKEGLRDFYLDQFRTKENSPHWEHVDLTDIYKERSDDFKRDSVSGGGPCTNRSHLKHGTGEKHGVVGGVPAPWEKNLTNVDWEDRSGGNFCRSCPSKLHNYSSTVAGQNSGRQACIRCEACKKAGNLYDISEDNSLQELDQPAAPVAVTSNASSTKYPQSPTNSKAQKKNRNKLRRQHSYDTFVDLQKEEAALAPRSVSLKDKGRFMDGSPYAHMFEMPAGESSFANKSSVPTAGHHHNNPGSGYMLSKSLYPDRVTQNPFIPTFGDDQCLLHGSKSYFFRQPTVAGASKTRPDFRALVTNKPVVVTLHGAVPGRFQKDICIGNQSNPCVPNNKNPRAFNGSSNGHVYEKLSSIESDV
Experimental: This example describes an NR2B receptor binding assay in rat brain using [^3H] […] The binding assay method was adapted from a previously described cellular human NR1a/NR2B cloned receptor assay (Kiss et al. Neurochem. Internatl. 2005, 46:453-464) to rat brain tissue. This assay serves as a selective measure of NR2B receptor binding activity in native rat brain receptors. Briefly, the brains of male Wistar rats were homogenized (Polytron) before centrifugation at 40,000×g for 15 minutes at 4° C. After 2 washes, the final pellet was homogenized and stored at −80° C. The protein concentration was determined by Bradford assay. [^3H] […] Non-specific binding was assessed in the presence of excess (10 μM) (E)-N1-(2-nethoxybenzyl)-cinnamidine.
Test compounds were solubilized at 10 mM in DMSO. Then the dilutions were performed with a constant solvent concentration (1% DMSO) in the assay. After incubation for 4.5 hours at room temperature, the assays were filtered on GF/3 filters pretreated with 0.3% (v/v) polyethylenimine (PEI) with a Packard system. The experiment was performed in duplicate (n=2).

[2] = target: human NR1/NR2B (Homo sapiens (Human), UniProt Q05586+Q13224); experiment: NR2B antagonist activity: calcium influx (Fluo-4) assay in HEK293 cells; assay type: cell-based
Sequence of human NR1/NR2B (Q13224 27-1484, other chains not shown): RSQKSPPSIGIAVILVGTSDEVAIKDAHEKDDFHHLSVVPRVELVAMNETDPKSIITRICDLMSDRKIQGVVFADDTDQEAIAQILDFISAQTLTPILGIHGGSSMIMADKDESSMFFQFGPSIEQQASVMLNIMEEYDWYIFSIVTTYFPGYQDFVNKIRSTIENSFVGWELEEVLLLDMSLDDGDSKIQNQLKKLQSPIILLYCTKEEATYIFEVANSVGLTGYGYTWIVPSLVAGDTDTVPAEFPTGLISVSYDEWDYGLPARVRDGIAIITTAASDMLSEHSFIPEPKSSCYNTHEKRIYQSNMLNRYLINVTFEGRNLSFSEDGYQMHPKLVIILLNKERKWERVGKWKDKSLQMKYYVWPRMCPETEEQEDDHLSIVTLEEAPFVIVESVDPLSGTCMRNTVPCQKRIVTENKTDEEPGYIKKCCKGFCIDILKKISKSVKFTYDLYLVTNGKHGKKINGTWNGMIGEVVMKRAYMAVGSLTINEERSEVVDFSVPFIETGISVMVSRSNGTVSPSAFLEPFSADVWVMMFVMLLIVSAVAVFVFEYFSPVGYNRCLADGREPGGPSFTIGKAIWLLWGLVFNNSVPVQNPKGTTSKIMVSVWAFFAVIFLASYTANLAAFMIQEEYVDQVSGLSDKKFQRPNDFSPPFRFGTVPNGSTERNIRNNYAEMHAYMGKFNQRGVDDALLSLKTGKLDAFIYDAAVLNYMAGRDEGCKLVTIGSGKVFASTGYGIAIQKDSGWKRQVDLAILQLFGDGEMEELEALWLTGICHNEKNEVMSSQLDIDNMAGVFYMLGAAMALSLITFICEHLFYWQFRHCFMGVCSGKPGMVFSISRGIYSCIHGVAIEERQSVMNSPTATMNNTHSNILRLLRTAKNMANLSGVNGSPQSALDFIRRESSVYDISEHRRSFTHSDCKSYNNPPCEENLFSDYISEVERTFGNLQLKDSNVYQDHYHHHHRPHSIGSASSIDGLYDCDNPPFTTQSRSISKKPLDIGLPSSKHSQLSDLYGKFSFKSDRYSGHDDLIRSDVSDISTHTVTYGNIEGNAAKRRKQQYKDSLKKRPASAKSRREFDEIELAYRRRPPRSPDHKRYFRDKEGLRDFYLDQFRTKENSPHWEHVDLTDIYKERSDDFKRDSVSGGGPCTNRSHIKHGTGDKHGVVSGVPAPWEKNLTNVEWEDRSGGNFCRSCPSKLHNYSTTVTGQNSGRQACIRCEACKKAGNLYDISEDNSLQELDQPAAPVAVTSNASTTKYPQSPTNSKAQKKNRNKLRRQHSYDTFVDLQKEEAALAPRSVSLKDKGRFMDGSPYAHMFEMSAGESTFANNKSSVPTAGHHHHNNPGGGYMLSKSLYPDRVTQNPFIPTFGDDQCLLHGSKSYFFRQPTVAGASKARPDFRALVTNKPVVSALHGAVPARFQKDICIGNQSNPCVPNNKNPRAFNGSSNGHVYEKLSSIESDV
Experimental: Activation of the NR2A or NR2B subtype of NMDA receptor with glutamate as an agonist and glycine co-agonist on these cells results in calcium influx, which can be monitored with fluorescent indicator Fluo-4.
For experiments, the cells were seeded onto poly-D-lysine-coated 96-well black plates with clear bottom (Corning) at a density of ˜50,000 cells/well. After overnight culture, the growth medium was removed from the wells and the cells were incubated at 37° C. for 60 minutes in Hanks buffer containing 4 μM fluo-4-AM (Invitrogen) and 0.1% bovine serum albumin (BSA). After dye-loading, the cells were washed three times with Hanks buffer and incubated for 10 minutes at room temperature with various concentrations of test compounds prepared in Hanks buffer with 0.1% BSA. The cell plates were placed onto an FDSS Cell fluorescence reader (Hamamatsu). After 20 seconds of reading background fluorescence, agonist glutamate at final 100 µM and co-agonist glycine at final 50 μM were added to the cells to activate the receptor, and the resulting fluorescence changes were recorded and quantified. Based on the changes in fluorescence intensity, the pharmacological effect of test compounds was analyzed and the IC50 values derived from a non-linear least squares fitting of the concentration-dependent response to a standard logistic equation using Prism (Graphpad Software, Inc.): Amplitude=Max Amplitude/(1+(IC50/[antagonist])^n).

[3] = target: hERG channel (Homo sapiens (Human), UniProt Q12809); experiment: hERG channel inhibition, whole cell patch clamp in HEK293 cells; assay type: cell-based; settings: Table 1.3A
Sequence of hERG channel (Q12809 whole entry): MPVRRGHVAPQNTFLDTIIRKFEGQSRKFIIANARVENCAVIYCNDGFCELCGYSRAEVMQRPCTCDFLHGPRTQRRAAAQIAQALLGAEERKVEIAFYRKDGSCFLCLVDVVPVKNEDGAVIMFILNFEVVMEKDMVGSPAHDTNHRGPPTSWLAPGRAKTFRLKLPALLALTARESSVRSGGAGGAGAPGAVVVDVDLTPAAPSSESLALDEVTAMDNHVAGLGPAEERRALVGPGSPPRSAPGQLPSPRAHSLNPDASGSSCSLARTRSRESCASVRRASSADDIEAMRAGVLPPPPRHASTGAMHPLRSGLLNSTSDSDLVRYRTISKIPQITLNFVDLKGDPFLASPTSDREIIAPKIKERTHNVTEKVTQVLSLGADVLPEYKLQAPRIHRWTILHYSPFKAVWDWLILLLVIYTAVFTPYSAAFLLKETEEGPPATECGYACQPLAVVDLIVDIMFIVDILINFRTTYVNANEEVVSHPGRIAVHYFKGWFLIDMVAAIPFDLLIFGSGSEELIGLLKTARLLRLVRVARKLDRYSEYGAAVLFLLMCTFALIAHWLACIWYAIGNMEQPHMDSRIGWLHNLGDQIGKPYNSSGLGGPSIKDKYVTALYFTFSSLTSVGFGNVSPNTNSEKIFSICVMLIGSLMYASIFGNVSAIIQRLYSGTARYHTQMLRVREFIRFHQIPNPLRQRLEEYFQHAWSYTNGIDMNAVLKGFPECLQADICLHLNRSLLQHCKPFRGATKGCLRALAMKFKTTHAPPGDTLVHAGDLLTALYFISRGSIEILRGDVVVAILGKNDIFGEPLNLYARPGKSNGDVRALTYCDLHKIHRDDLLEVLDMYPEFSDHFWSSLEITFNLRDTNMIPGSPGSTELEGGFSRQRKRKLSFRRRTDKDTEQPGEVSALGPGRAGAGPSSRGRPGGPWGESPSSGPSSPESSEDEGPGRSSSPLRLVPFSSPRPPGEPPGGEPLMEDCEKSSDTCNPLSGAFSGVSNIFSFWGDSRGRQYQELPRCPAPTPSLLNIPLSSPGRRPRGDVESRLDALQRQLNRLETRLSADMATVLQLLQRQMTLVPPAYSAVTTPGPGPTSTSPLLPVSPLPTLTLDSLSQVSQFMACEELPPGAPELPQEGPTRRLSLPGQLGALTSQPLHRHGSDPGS
Experimental: The assay was performed on hERG channel stably expressed in HEK293 cells. The cells were cultured at 37° C. in a humidified CO2 incubator in the growth medium consisting of DMEM, 10% fetal bovine serum and antibiotics. Prior to the assay, the cells were seeded onto a 12-mm PDL-coated glass coverslip and cultured in a 35-mm Petri dish. After 16 to 40 hours culture, the coverslip was transferred into the chamber of OctaFlow perfusion system (ALA Instrument) and under a constant flow of extracellular solution (140 mM NaCl, 4 mM KCl, 1 mM MgCl2, 2 mM CaCl2, 10 mM HEPES, 10 mM D-glucose, pH 7.35, osmolarity 290). Whole cell patch clamping was performed with a glass micropipette filled with intracellular solution (120 mM KCl, 1.75 mM MgCl2, 5.4 mM CaCl2, 10 mM HEPES, 10 mM EGTA, and 4 mM ATP-K2, pH 7.2, osmolarity 310). Giga-seal was maintained during the test. The voltage control and current measurement were carried out using Axon amplifier 700B, Digidata 1440A and CLAMPEX10 software (Molecular Devices). Whole-cell hERG currents were recorded following the Petroski protocol: the cell was held at −80 mV, and the voltage step jumped from −80 to 30 mV and stay for 2 seconds with a 20-millisecond prepulse at −40 mV. After depolarization, the voltage was decreased to −40 mV and stay for 2 seconds, and returned back to −80 mV. Test compound was applied by quartz capillary tubes tip (200 m inner diameter), and the flow rate was controlled at 2-3 mL/min with OctaFlow perfusion system. Different concentrations of the compound were applied to the cells for 5 minutes and the hERG current was measured three times before, during and after compound treatment. The data were analyzed using Clampfit 10 software (Molecular Devices) to generate IC50 values.

[4] = tested on: wild type mice (male NMRI); experiment: Marble Burying Test in wild type mice; assay type: in vivo, mouse; settings: for change in vivo at 3 mg/kg / change in vivo at 10 mg/kg / change in vivo at 30 mg/kg: Mus musculus, ip, read-out: Percent Change in marbles buried relative to vehicle
Experimental: Animals. Male NMRI mice (20-30 g body weight) were obtained from Janvier Labs (Le Genest-Saint Isle, France) and allowed to acclimate to the animal facility for at least 5 days. Twelve mice were studied per treatment group.
Compound formulation. The test compounds were prepared in a vehicle of 0.5% DMSO and 4% HP-β-CD, and administered orally (PO) or IP. The test compounds or vehicle were administered 20 minutes before the behavioral test described below. Clobazam (8 mg/kg IP), administered 30 minutes before the test, was used as the positive reference compound.
Clobazam was dispersed in 0.2% hydroxypropylmethylcellulose (HPMC) in physiological saline. Dosing volume was 10 mL/kg.
Testing procedure. The Marble Burying Test was conducted as previously described by Broekkamp et al. (Eur. J. Pharmacol. 1986, 126:223-229). Mice exposed to small novel objects (marbles) will bury them in the sawdust floor covering. Anxiolytics decrease the number of marbles buried at non-sedating doses. Mice were individually placed in transparent plastic cages (33×21×18 cm) with 5 cm of sawdust on the floor and 25 marbles grouped in the center of the cage. The cage was covered with an inverted plastic cage. Each test cage, together with the marbles, was impregnated with mouse odor before-hand by leaving 10 mice in the cage for 15 minutes. These mice then played no further role in the experiment. The number of marbles covered by sawdust (⅔ or more) was counted at the end of the 30-minute test. The test was performed blind (compounds versus vehicle).
Statistical analyses. Data were analyzed by comparing test compound-treated groups with the vehicle control group using the Kruskal-Wallis test followed by post-hoc Mann-Whitney U tests. Data comparing the reference compound with the vehicle were analyzed using the Mann-Whitney U test. A p value<0.05 was considered significant.

[5] = tested on: wild type mice (male C57Bl/6); experiment: Novelty Phobia Test in wild type mice; assay type: in vivo, mouse; settings: for Percent Change in Novel Object Number of Nose Touches relative to vehicle control: pre-test time 10 min; for pattern of the dose-response function for bouts of nose touching: mouse, in vivo
Experimental: Animals. Male C57Bl/6 mice (18-30 g body weight; 6-8 weeks of age) were obtained from Slaccas (Shanghai, China) and allowed to acclimate to the animal facility for 7 days. Mice were group housed in plastic cages (no more than 4 animals per cage) on wood shavings with nesting material. All animals had free access to food (M01-F, Slaccas) and water. The animal facility was maintained under artificial lighting between 7:00 AM and 7:00 PM in a controlled ambient temperature of 22-24° C. and relative humidity between 50-60%.
Compound formulation. The test compounds were prepared in a vehicle of DMSO and HP-β-CD, and administered IP or PO. The test compounds or vehicle were administered at various times (10-20 minutes) before the behavioral test described below. Dosing volume was 10 mL/kg.
Testing procedure. The behavioral testing apparatus was a rectangular black Plexiglas, 2-chambered box, with no top or bottom (50 cm long, 26 cm wide and 15 cm tall) and allowed for the simultaneous testing of 2 mice. The box was placed on a laboratory bench. The chambers of the testing box were cleaned and fresh paper chip bedding was added between tests. Mice were brought to the experiment room in their home cages on the day of testing. Behavioral tests were conducted between 10:00 AM and 1:00 PM in dim light. After drug administration, a mouse was placed into a test chamber and allowed to explore for 10 minutes. After this habituation period, a novel object (e.g., a toy ball of 3 cm in diameter with spikes) was introduced to the center of the chamber for 5 minutes. For the entire 15-minute test period, video was recorded for offline analysis with Any-maze Video Tracking software (Stoelting Co., Wood Dale, Ill.). The total distance traveled during the entire 15 minutes and the number of bouts that each mouse touched the novel object during the last 5 minutes were measured.
Statistical analyses. Data are presented as means and SEMs. Data were analyzed using one-way analysis of variance (ANOVA; Prism, GraphPad Software Inc., San Diego, Calif.), followed by the post-hoc Dunnett's test to compare test compound-treated groups with the vehicle control. A p value<0.05 was considered significant.

[6] = read-out: hNR2B IC50, Table 1.3A
[7] = Table 1.1A, read-out: NR2B IC50
[8] = Table 1.3A, read-out: hNR2B IC50
[9] = rat brain NR2B receptors, mean of replicates, read-out: Arithmetic Mean Ki

COc1ccccc1CNC(=N)/C=C/c1ccccc1 [(E)-N1-(2-methoxybenzyl)-cinnamidine, reference compound]
Ki ([1]; high affinity site, rat brain membranes, read-out: inhibition constant (Ki), mean): 0.22 nM

Fc1ccc(C(F)(F)CN2CCC(Nc3ncnc4[nH]ccc34)CC2)nc1 [C-2^A′]
IC50 [2]: 124 nM

Cc1ccc(C(F)(F)CN2CCC(Nc3ncnc4[nH]ccc34)CC2)nc1 [C-4^A′]
IC50 [2]: 35 nM | IC50 [2, 6]: 35 nM

FC(F)c1ccc(C(F)(F)CN2CCC(Nc3ncnc4[nH]ccc34)CC2)nc1 [C-6^A′]
IC50 [2, 7]: 31 nM | IC50 [2, 8]: 31 nM | IC50 [3]: 6900 nM | change in vivo at 3 mg/kg [4]: -23% | change in vivo at 10 mg/kg [4]: -62% | change in vivo at 30 mg/kg [4]: -100%

FCc1ccc(C(F)(F)CN2CCC(Nc3ncnc4[nH]ccc34)CC2)nc1 [C-7^A′]
IC50 [2]: 14 nM

FC(F)Oc1ccc(C(F)(F)CN2CCC(Nc3ncnc4[nH]ccc34)CC2)nc1 [C-12^A′]
bouts of nose touching of the novel object, efficacy ([5]; IP (C-11 also PO)): not efficacious | change in vivo at 3 mg/kg [4]: -14% | change in vivo at 10 mg/kg [4]: -56% | change in vivo at 30 mg/kg [4]: -100%

Fc1cc(Cl)cnc1C(F)(F)CN1CCC(Nc2ncnc3[nH]ccc23)CC1 [C-16^A′]
IC50 [2]: 47 nM | IC50 [2, 6]: 47 nM | IC50 [3]: 60000 nM

Cc1cnc(C(F)(F)CN2CCC(Nc3ncnc4[nH]ccc34)CC2)c(F)c1 [C-17^A′]
IC50 [2]: 44 nM

Fc1cc(C(F)(F)F)cnc1C(F)(F)CN1CCC(Nc2ncnc3[nH]ccc23)CC1 [C-18^A′]
IC50 [2, 7]: 84 nM

Cc1ccc(C(F)(F)CN2CCC(N(C)c3ncnc4[nH]ccc34)CC2)nc1 [C-47^A′]
IC50 [2, 7]: 140 nM

Cc1ccc(C(F)(F)CN2CCC(Nc3ncnc4[nH]ccc34)CC2)cn1 [C-128^A′]
IC50 [2]: 89 nM | IC50 [2, 6]: 89 nM

Fc1ccc(C(F)(F)CN2CCC(Nc3ncnc4[nH]ccc34)CC2)cc1 [C-175^A′]
Percent Change in Novel Object Number of Nose Touches relative to vehicle control ([5]; IP, 3 mg/kg): 25.1% | Percent Change in Novel Object Number of Nose Touches relative to vehicle control ([5]; IP, 10 mg/kg): 139% | Percent Change in Novel Object Number of Nose Touches relative to vehicle control ([5]; IP, 30 mg/kg): −88.1% | pattern of the dose-response function for bouts of nose touching [5]: inverted U-shaped dose-response function | IC50 [2]: 22 nM | IC50 ([2]; read-out: NR2B IC50, Table 1.4A): 22 nM | IC50 [2, 6]: 22 nM

FC(F)(CN1CCC(Nc2ncnc3[nH]ccc23)CC1)c1ccc(Cl)cc1 [C-176^A′]
IC50 [2]: 26 nM

Cc1ccc(C(F)(F)CN2CCC(Nc3ncnc4[nH]ccc34)CC2)cc1 [C-177^A′]
IC50 [2]: 27 nM

FC(F)(F)c1ccc(C(F)(F)CN2CCC(Nc3ncnc4[nH]ccc34)CC2)cc1 [C-178^A′]
change in vivo at 0.3 mg/kg ([5]; Mus musculus, ip, 20 min, IP, 0.3 mg/kg, pre-test time 20 min, read-out: Percent Change in Novel Object Number of Nose Touches relative to vehicle control): -4.12% | change in vivo at 1 mg/kg ([5]; Mus musculus, ip, 20 min, IP, 1 mg/kg, pre-test time 20 min, read-out: Percent Change in Novel Object Number of Nose Touches relative to vehicle control): 50.3% | change in vivo at 3 mg/kg ([5]; Mus musculus, ip, 20 min, IP, 3 mg/kg, pre-test time 20 min, read-out: Percent Change in Novel Object Number of Nose Touches relative to vehicle control): 110% | pattern of the dose-response function for bouts of nose touching [5]: dose-dependent increases | IC50 [2, 7]: 64 nM | IC50 [2, 8]: 64 nM | IC50 ([2]; Table 1.4A, read-out: NR2B IC50): 64 nM | IC50 [3]: 1600 nM

Cc1cnc(C(F)(F)CN2CCC(Nc3ncnc4[nH]ccc34)CC2)cn1 [C-230^A′]
IC50 [2]: 88 nM | IC50 [2, 6]: 88 nM

Cc1ccc(COC(=O)N2CC[C@H](CNc3cnc(C#N)cn3)C(F)(F)C2)cc1 [E1-21.30^B′, (R)-4-methylbenzyl 4-(((5-cyanopyrazin-2-yl)amino)methyl)-3,3-difluoropiperidine-1-carboxylate]
Ki [1, 9]: 31 nM

Cc1cnc(NC[C@H]2CCN(C(=O)OCc3ccc(Cl)cc3)CC2(F)F)cn1 [E1-21.33^B′, (R)-4-chlorobenzyl 3,3-difluoro-4-(((5-methylpyrazin-2-yl)amino)methyl)piperidine-1-carboxylate mesylate]
Ki [1, 9]: 11 nM

Cc1cnc(NC[C@H]2CCN(C(=O)OCc3ccc(F)cc3)CC2(F)F)cn1 [E1-21.34^B′, (R)-4-fluorobenzyl 3,3-difluoro-4-(((5-methylpyrazin-2-yl)amino)methyl)piperidine-1-carboxylate mesylate]
Ki [1, 9]: 16 nM

Cc1ccc(COC(=O)N2CC[C@H](CNc3ncc(C(F)(F)F)cn3)C(F)(F)C2)cc1 [E1-22.29^B′, (R)-4-methylbenzyl 3,3-difluoro-4-(((5-(trifluoromethyl)pyrimidin-2-yl)amino)methyl)piperidine-1-carboxylate methanesulfonate]
Ki [1, 9]: > 1000 nM

O=C(OCc1ccc(F)cc1)N1CC[C@H](CNc2ccccn2)C(F)(F)C1 [E1-23.4^B′, (R)-4-fluorobenzyl 3,3-difluoro-4-((pyridin-2-ylamino)methyl)piperidine-1-carboxylate]
Ki [1, 9]: 7.8 nM

Cc1ccc(COC(=O)N2CC[C@H](CNc3cccc(C)n3)C(F)(F)C2)cc1 [E1-23.32^B′, (+)-(R)-4-methylbenzyl 3,3-difluoro-4-(((6-methylpyridin-2-yl)amino)methyl)piperidine-1-carboxylate]
Ki [1, 9]: 31 nM

CN1C(=O)CC(=O)N(c2ccccc2)c2cc(Cl)ccc21 [clobazam, Clobazam, reference compound]
number of buried marbles, positive reference ([4]; 8 mg/kg IP, 30 minutes before the test, data not shown): significantly reduced the number of buried marbles
